The target of the assay is Calcium/calmodulin-dependent protein kinase type II subunit delta (Homo sapiens, UniProt Q13557). The experiment in a line: Inhibition of CaMK2delta.

The results in this text go back to ChEMBL document CHEMBL1143885, “Aryl-indolyl maleimides as inhibitors of CaMKIIdelta. Part 1: SAR of the aryl region” (Bioorg Med Chem Lett, 2008).

Each structure is given as a SMILES string.

Sequence of Calcium/calmodulin-dependent protein kinase type II subunit delta (Q13557 whole entry): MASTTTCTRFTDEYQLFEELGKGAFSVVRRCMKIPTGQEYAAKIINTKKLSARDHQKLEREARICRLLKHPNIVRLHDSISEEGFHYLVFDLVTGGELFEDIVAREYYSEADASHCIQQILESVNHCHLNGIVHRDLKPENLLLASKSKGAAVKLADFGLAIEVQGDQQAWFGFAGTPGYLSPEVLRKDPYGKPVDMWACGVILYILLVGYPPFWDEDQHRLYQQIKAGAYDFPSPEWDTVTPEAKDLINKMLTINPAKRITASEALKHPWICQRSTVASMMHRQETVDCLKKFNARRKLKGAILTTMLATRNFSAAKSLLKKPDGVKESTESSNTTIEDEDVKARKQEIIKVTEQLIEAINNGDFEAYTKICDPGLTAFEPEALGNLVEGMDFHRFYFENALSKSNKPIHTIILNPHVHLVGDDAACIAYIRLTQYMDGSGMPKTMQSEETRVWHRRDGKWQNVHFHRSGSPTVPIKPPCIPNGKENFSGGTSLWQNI

With `CC(C)(C)OC(=O)NCCCn1cc(C2=C(c3csc4ccccc34)C(=O)NC2=O)c2ccccc21`, the IC50 was above 20000 nM.

Regarding `CC(C)(C)OC(=O)NCCCn1cc(C2=C(c3cccs3)C(=O)NC2=O)c2ccccc21`, the IC50 was above 20000 nM.

`NCCCn1cc(C2=C(c3cccc(Oc4ccccc4)c3)C(=O)NC2=O)c2ccccc21`: the IC50 stood at 1680 nM.

For `NCCCn1cc(C2=C(c3ccncc3)C(=O)NC2=O)c2ccccc21`, the IC50 turned out to be 1600 nM.

For the molecule `NCCCn1cc(C2=C(c3cccc(-c4ccccc4)c3)C(=O)NC2=O)c2ccccc21`, the IC50 was 1320 nM.

On to `NCCCn1cc(C2=C(c3ccc4ccccc4c3)C(=O)NC2=O)c2ccccc21`, for which the IC50 came out at 500 nM.

For `NCCCn1cc(C2=C(c3cccc4ccccc34)C(=O)NC2=O)c2ccccc21`, the IC50 amounted to 290 nM.

As for `CN1C(=O)C(c2csc3ccccc23)=C(c2cn(CCCN)c3ccccc23)C1=O`, the IC50 came out at 2320 nM.

As for `NCCCn1cc(C2=C(c3ccc4ccccc4n3)C(=O)NC2=O)c2ccccc21`, the IC50 is above 20000 nM.

For `CN1C(=O)C(c2c[nH]c3ccc(Br)cc23)=C(c2cn(CCCN)c3ccccc23)C1=O`, the IC50 was above 20000 nM.

Take `NCCCn1cc(C2=C(c3cccs3)C(=O)NC2=O)c2ccccc21`: the IC50 was 1190 nM.

As for `NCCCn1cc(C2=C(c3cccnc3)C(=O)NC2=O)c2ccccc21`, the IC50 is 540 nM.

In the case of `Cc1[nH]c2ccccc2c1C1=C(c2cn(CCCNC(=O)OC(C)(C)C)c3ccccc23)C(=O)NC1=O`, the IC50 worked out at 7610 nM.

With `NCCCn1cc(C2=C(c3ccnc4ccccc34)C(=O)NC2=O)c2ccccc21`, the IC50 worked out at 630 nM.

With `Cc1cccc(C2=C(c3cn(CCCN)c4ccccc34)C(=O)NC2=O)c1`, the IC50 turned out to be 280 nM.

Regarding `NCCCn1cc(C2=C(c3ccco3)C(=O)NC2=O)c2ccccc21`, the IC50 worked out at 1490 nM.

In the case of `NCCCn1cc(C2=C(c3ccccn3)C(=O)NC2=O)c2ccccc21`, the IC50 stood at 1580 nM.

As for `CN1C(=O)C(c2ccccc2)=C(c2cn(CCCN)c3ccccc23)C1=O`, the 50% inhibitory concentration (IC50) is 15000 nM.

Broadly, the IC50 is the concentration at which inhibition is half-maximal.
